Data set [1] is described as follows: PK in the rat. The format is in vivo, SD rat. Conditions: 10 mg/kg oral gavage once.
The target in data set [2] is T1, THR-β (Homo sapiens, UniProt P10828).
T1 construct: expressed in transfected cells; host or cells: CV-1 cells
T1 sequence (P10828 1-461): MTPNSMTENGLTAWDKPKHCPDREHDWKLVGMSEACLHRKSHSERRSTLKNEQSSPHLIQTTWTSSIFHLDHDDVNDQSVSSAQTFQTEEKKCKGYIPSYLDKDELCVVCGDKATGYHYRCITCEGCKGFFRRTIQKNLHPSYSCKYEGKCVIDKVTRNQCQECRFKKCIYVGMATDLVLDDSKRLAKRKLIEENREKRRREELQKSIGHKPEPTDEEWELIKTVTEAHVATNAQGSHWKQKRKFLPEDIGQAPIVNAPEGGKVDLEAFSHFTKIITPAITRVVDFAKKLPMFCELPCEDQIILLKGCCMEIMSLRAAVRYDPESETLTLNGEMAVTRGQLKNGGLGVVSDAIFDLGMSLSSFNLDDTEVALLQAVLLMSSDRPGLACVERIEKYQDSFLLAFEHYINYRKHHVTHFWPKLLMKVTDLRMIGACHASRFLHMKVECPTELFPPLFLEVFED
The experiment in a line: Luciferase reporter gene assay, THR-β. The data set is classed as cell-based. Here is the method:
(§1) We applied a luciferase reporter gene assay to assess the capacity of drugs to bind and activate THRα or THRβ. First, we seeded 5 × 10^3 CV-1 cells for each well into 96-well plates and incubated for 24 hours at 37°C and 5% CO2. We then transiently transfected mixed THR-α or THR-β expression plasmids (with DR4) into liposomes with a firefly luciferase reporter (2 : 2 : 1, THRα : DR4 : GFP or 3 : 3 : 1, THRβ : DR4 : GFP) and then mixed with the X-tremeGENE HP DNA Transfection Reagent (Roche, Basel, BS, Switzerland). […] We then removed the medium and added 60 μl of 1x Cell Culture Lysis and 5x reagent (Promega, E153A) to each well. […] Finally, we added 30 μl of Luciferase Assay Buffer (Promega, E151A) to each well to detect Luci values. 50% activation (AC50) for each compound was calculated based on these values.
(In a reporter assay the amount or activity of a reporter protein is the signal.)

The nature of data set [3]: PK in the mouse. The format is in vivo, C57/B6 mouse. Here is the method:
Blood was collected for each mouse 0.5, 1, 2, 3, 4, 6, 8, 24, and 30 hours (H) after compound administration. Then, the serum was isolated and an extractant (containing 200 ng/ml methanol) was added to the serum. Samples were assessed by liquid chromatography-tandem mass spectrometry (LC-MS/MS) according to the standard procedure.

Data set [4] has as its target T2, THR-α (Homo sapiens, UniProt P10827).
T2 construct: expressed in transfected cells; host or cells: CV-1 cells
T2 sequence (P10827 1-410 isoform P10827-2): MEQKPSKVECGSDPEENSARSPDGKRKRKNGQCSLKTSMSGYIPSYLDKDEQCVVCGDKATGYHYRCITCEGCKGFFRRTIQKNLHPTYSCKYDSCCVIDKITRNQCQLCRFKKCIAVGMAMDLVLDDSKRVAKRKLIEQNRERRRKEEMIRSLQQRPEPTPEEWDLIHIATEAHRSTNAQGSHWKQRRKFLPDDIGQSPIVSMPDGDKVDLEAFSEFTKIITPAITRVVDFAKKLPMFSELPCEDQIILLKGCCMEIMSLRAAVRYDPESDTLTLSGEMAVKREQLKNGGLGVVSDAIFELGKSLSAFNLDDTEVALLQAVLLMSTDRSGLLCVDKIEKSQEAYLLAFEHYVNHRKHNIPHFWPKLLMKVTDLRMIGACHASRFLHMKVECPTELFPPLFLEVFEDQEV
The experiment in a line: Luciferase reporter gene assay, THR-α. Conditions: CV-1 cells transfected with THR-α, DR4 luciferase reporter, 22 hours. The data set is classed as cell-based. On the procedure: as §1

The target in data set [5] is T3, hERG (Homo sapiens, UniProt Q12809).
T3 construct: Ice Bioscience Co., Ltd. (Beijing, China)
T3 sequence (Q12809 whole entry): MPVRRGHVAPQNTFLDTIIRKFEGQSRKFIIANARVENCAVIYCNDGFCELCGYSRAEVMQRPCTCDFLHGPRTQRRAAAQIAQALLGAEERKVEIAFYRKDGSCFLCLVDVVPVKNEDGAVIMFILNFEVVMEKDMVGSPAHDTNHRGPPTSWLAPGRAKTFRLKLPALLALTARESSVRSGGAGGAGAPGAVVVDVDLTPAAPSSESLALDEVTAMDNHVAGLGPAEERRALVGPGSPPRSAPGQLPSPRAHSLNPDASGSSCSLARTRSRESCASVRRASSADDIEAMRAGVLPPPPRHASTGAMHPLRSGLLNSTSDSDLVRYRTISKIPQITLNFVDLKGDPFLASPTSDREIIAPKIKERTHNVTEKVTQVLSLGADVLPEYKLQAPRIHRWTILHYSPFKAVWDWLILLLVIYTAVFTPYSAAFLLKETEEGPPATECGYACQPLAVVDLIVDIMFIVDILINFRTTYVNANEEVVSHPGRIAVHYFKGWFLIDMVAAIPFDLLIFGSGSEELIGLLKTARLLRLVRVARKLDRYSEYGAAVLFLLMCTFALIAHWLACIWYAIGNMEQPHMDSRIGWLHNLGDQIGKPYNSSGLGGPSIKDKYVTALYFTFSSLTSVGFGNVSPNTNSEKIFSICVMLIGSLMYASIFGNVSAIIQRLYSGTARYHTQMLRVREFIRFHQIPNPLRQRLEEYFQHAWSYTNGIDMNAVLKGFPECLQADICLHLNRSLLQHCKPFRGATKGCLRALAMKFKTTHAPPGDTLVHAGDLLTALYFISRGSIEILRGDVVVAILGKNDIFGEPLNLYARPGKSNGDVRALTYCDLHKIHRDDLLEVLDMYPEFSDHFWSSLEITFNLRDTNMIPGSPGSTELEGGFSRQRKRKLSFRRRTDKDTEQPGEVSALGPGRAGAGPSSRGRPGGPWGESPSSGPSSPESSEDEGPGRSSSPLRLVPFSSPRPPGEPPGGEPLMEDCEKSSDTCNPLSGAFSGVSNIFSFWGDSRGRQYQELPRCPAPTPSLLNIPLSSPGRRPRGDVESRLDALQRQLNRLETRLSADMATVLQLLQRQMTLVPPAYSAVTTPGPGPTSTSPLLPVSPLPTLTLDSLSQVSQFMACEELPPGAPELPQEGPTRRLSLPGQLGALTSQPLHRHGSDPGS
Put plainly: hERG test (QPatch HTX). The data set is classed as cell-based. Here is the method: hERG test was performed by Ice Bioscience Co., Ltd. (Beijing, China) using the QPatch HTX method according to the manufacturer's instruction. 5 doses of CS27109 were tested, including […], each one with a duplicate. The tested values (current) were normalized to the negative control (0.1% DMSO), and IC50 was calculated based on the normalized data.

For the molecule `CC(C)c1cc(Oc2c(Cl)cc(-n3nc(C#N)c(=O)[nH]c3=O)cc2Cl)n[nH]c1=O` [MGL3196, 2-[3,5-dichloro-4-(5-isopropyl-6-oxo-1,6-dihydropyridazin-3-yloxy)phenyl]-3,5-dio xo-2,3,4,5-tetrahydro[1,2,4]triazine-6-carbonitrile, reference compound], in data set [1], the “PK properties in rat (compared with CS27109)” value is given as “slightly higher PK properties”.
Usually AC50 stands for the concentration giving half of the maximal activity seen. High values mean weaker potency, low ones greater potency. Usually IC50 stands for the midpoint of a concentration-inhibition curve. In data set [2] (CV-1 cells transfected with THR-β, DR4 luciferase reporter, 22 hours), `N#Cc1nn(-c2cc(Br)c(Oc3n[nH]c(=O)c4ccccc34)c(Br)c2)c(=O)[nH]c1=O` [CS27109] registered an AC50 of 1.98 µM. Further, the “Selectivity (α/β)” value in data set [2] (THR-α/THR-β AC50 ratio) is given as 12.67. The “PK properties in mouse (comparison of CS27109 and MGL3196)” value in data set [3] (10 mg/kg oral gavage once) is given as “comparative PK properties”. Besides, the “AUC in mouse relative to AUC in rat” value in data set [3] (10 mg/kg oral, mouse higher than rat) is reported as 1.5 fold. Moreover, the AC50 in data set [4] was determined as 25.1 µM. In data set [5], the IC50 is greater than 30 µM and the hERG test result was “cardiac tolerable”.

Values taken from PMC9943626, “CS27109, A Selective Thyroid Hormone Receptor-β Agonist Alleviates Metabolic-Associated Fatty Liver Disease in Murine Models” (International Journal of Endocrinology, 2023).
